Like-named read-outs stand apart in the source and are kept apart here.
Legend:
[1] = human, in vivo
M. tuberculosis = details: cited from earlier work

NC[C@@H](O)c1c(Cl)ccc(OCCO)c1O [GSK3635633]
% dose in pooled urine [1]: 6 % dose

COc1nc2ccc(Br)cc2cc1[C@@H](c1ccccc1)[C@@](O)(CCN(C)C)c1cccc2ccccc12 [bedaquiline]
reported average EBA0–14 (M. tuberculosis; loading doses of 700 mg on day 1 and 500 mg on day 2 and then 400 mg): 0.061

C[C@]1(COc2ccc(N3CCC(Oc4ccc(OC(F)(F)F)cc4)CC3)cc2)Cn2cc([N+](=O)[O-])nc2O1 [delamanid]
reported average EBA0–14 (M. tuberculosis; 300 mg): 0.065

Source: publication PMC6658769, “First-Time-in-Human Study and Prediction of Early Bactericidal Activity for GSK3036656, a Potent Leucyl-tRNA Synthetase Inhibitor for Tuberculosis Treatment” (Antimicrobial Agents and Chemotherapy, 2019)
